Results as given in patent publication US8247211B2, “Glycopeptide antibiotics” (American Cyanamid Company, priority 2001, dated 2012).
Converted amounts (≈) assume the structure as drawn. Numbered stars: 1 amine (or outer) side, 2 acyl side, 3 side chain; on linkers, the order of the positions; unused ones are H or OH. Square brackets hold non-standard residues; d marks the D form. Peptide text beside a SMILES is read from it. X5 = N=C1NCC(C(O)[C@@H](N[*:1])C(=O)[*:2])N1; X4 = N=C1NCC(C(O)[C@H](N[*:1])C(=O)[*:2])N1; Cha = N[C@@H](CC1CCCCC1)C(=O)O; dCha = N[C@H](CC1CCCCC1)C(=O)O

Legend:
Experiment in all cases: In vitro antibacterial evaluation: minimum inhibitory concentration (MIC), broth dilution method
Format in all cases: cell-based
Streptococcus sp. = details: broth dilution, 18 hours at 35° C.
Protocol: (§1) The minimum inhibitory concentration (MIC), the lowest concentration of the antibiotic which inhibits growth of the test organism, is determined by the broth dilution method using Muller-Hinton II […] (Baltimore Biological Laboratories) following the recommendations of the National Committee for Clinical Laboratory Standards [Methods for dilution antimicrobial susceptibility tests for bacteria that grow aerobically, approved standard M7-A2, National Committee for Clinical Laboratory Standards, Villanova, Pa].
(§2) An inoculum level of 5×10^5 CFU/mL, and a range of antibiotic concentrations (64-0.06 μg/mL) is used. […] The test organisms include a spectrum of Gram-positive bacteria comprised of Staphylococcus sp., Streptococcus sp. and Enterococcus sp. These organisms include recent clinical isolates that are resistant to methicillin, penicillin and/or vancomycin.

Staphylococcus sp. = details: broth dilution, 18 hours at 35° C.
Protocol: as §1, §2

Enterococcus sp. = details: Enterococcus faecalis (GC 6189); broth dilution, 18 hours at 35° C.
Protocol: as §1, §2

[1] = Streptococcus pneumoniae (GC 4565)

**Q.** CC(C)C(=O)Nc1cc(CC2NC(=O)C(C(C)c3ccccc3)NC(=O)CNC(=O)C(CO)NC(=O)C(C(O)C3CNC(=N)N3C3OC(CO)C(O)C(O)C3O)NC(=O)C(C(O)C3CNC(=N)N3)NC2=O)ccc1O (stereo not drawn) [Example 15, Cyclo[glycyl-β-methylphenylalanyl-3-(2-methylpropanamido)tyrosyl-3-(2-iminoimidazolidin-4-yl)seryl-3-(3-hexopyranosyl-2-iminoimidazolidin-4-yl)serylseryl]] was tested. Which “MIC Streptococcus pneumoniae (GC 4565)” value (Streptococcus sp.; [1]) did it give?
**A.** Its value is 64 µg/mL (≈ 60.6 µM).

**Q.** And the “MIC Streptococcus pneumoniae (GC 4565)” value (Streptococcus sp.)?
**A.** The value was 64 µg/mL (≈ 60.6 µM).

**Q.** What does the source list for Cc1ccc(OC(=O)Nc2cc(CC3NC(=O)C(C(C)c4ccccc4)NC(=O)CNC(=O)C(CO)NC(=O)C(C(O)C4CNC(=N)N4C4OC(CO)C(O)C(O)C4O)NC(=O)C(C(O)C4CNC(=N)N4)NC3=O)ccc2O)cc1 (stereo not drawn) [Example 19, Cyclo[glycyl-β-methylphenylalanyl-3-[[(4-methylphenoxy)carbonyl]amino]tyrosyl-3-(2-iminoimidazolidin-4-yl)seryl-3-(3-hexopyranosyl-2-iminoimidazolidin-4-yl)serylseryl]]?
**A.** MIC Streptococcus pneumoniae (GC 1894) (Streptococcus sp.; Streptococcus pneumoniae (GC 1894)): 64 µg/mL (≈ 57.1 µM); MIC Streptococcus pneumoniae (GC 1894) (Streptococcus sp.): 64 µg/mL (≈ 57.1 µM)

**Q.** What does the source list for CCC(=O)Nc1cc(CC2NC(=O)C(C(C)c3ccccc3)NC(=O)CNC(=O)C(CO)NC(=O)C(C(O)C3CNC(=N)N3C3OC(CO)C(O)C(O)C3O)NC(=O)C(C(O)C3CNC(=N)N3)NC2=O)ccc1O (stereo not drawn) [Example 14, Cyclo[glycyl-β-methylphenylalanyl-3-(propanamido)tyrosyl-3-(2-iminoimidazolidin-4-yl)seryl-3-(3-hexopyranosyl-2-iminoimidazolidin-4-yl)serylseryl]]?
**A.** MIC Streptococcus pneumoniae (GC 4565) (Streptococcus sp.; [1]): 64 µg/mL (≈ 61.4 µM); MIC Streptococcus pneumoniae (GC 4565) (Streptococcus sp.): 64 µg/mL (≈ 61.4 µM)

**Q.** What does the source list for N=C1NCC(C(O)[C@@H]2NC(=O)[C@@H](CC3CCCCC3)NC(=O)[C@H](CC3CCCCC3)NC(=O)CNC(=O)[C@H](CO)NC(=O)[C@@H](C(O)C3CNC(=N)N3)NC2=O)N1 (some centres unmarked) [Example 58, Cyclo[3-cyclohexylalanyl-3-cyclohexylalanyl-3-(2-iminoimidazolidin-4-yl)seryl-3-(2-iminoimidazolidin-4-yl)-serylserylglycyl]] (cyclo([Cha][dCha][X4][X5]SG))?
**A.** MIC Coagulase Negative Staphylococcus (GC 4547) (Staphylococcus sp.): 4 µg/mL (≈ 5.06 µM); MIC Coagulase Negative Staphylococcus (GC 4548) (Staphylococcus sp.): 4 µg/mL (≈ 5.06 µM); MIC Coagulase Negative Staphylococcus (GC 4549) (Staphylococcus sp.): 4 µg/mL (≈ 5.06 µM); MIC Coagulase Negative Staphylococcus (GC 4551) (Staphylococcus sp.): 8 µg/mL (≈ 10.1 µM); MIC Staphylococcus haemolyticus (GC 4546) (Staphylococcus sp.): 4 µg/mL (≈ 5.06 µM); MIC Staphylococcus aureus (ATCC 29213) (Staphylococcus sp.; strain ATCC 29213): 16 µg/mL (≈ 20.2 µM); MIC Staphylococcus aureus (GC 4542) (Staphylococcus sp.; strain GC 4542): 16 µg/mL (≈ 20.2 µM); MIC Staphylococcus aureus (GC 4544) (Staphylococcus sp.; strain GC 4544): 16 µg/mL (≈ 20.2 µM)

**Q.** Cc1cccc(Oc2ccc(-c3nc4cc(C[C@@H]5NC(=O)[C@H](C(C)c6ccccc6)NC(=O)CNC(=O)[C@H](CO)NC(=O)[C@H](C(O)C6CNC(=N)N6)NC(=O)[C@H](C(O)C6CNC(=N)N6)NC5=O)ccc4o3)cc2)c1 (stereo partly drawn) [Example 41, Cyclo[3-[2-[4-(3-methylphenoxy)phenyl]benzoxazol-5-yl]alanyl-3-(2-iminoimidazolidin-4-yl)-seryl-3-(2-iminoimidazolidin-4-yl)serylserylglycyl-β-methylphenylalanyl]] was tested. Which “MIC Enterococcus faecalis (GC 6189)” value (Enterococcus sp.) did it give?
**A.** Its value is >64 µg/mL.

**Q.** And the “MIC Staphylococcus haemolyticus (GC 4546)” value (Staphylococcus sp.; strain GC 4546)?
**A.** The value was 64 µg/mL (≈ 63 µM).

**Q.** And the “MIC Coagulase Negative Staphylococcus (GC 4547)” value (Staphylococcus sp.; strain GC 4547)?
**A.** The value was 64 µg/mL (≈ 63 µM).

**Q.** And the “MIC Coagulase Negative Staphylococcus (GC 4548)” value (Staphylococcus sp.; strain GC 4548)?
**A.** Its value is >64 µg/mL.

**Q.** And the “MIC Coagulase Negative Staphylococcus (GC 4549)” value (Staphylococcus sp.; strain GC 4549)?
**A.** The value was 32 µg/mL (≈ 31.5 µM).

**Q.** What about the “MIC Coagulase Negative Staphylococcus (GC 4551)” value (Staphylococcus sp.; strain GC 4551) of the same compound?
**A.** The value was 64 µg/mL (≈ 63 µM).
